# From patent US8569000B2, “Immunoassays using antibodies specific to carbamazepine” (priority 2011, dated 2013)
# Test system: antibody specific to carbamazepine
# Assay: Interference from other drugs in the carbamazepine ELISA assay
# Assay type: binding, rabbit
# Conditions: chemical tested at 10.0 μg/ml; procedures of Example 4 (ELISA); duplicate
# Excerpt: The Carbamazepine ELISA was developed with the antibody generated from Example 3. This assay is a competitive micro-immunoassay for determination of carbamazepine in a fluid sample. Carbamazepine in the fluid sample and carbamazepine derivative linked with the enzyme (HRP)-conjugate compete for the finite sites of the antibody coated on the solid surface of the microwell. If little or no carbamazepine is present in the fluid sample, more enzyme labeled carbamazepine derivative will bind to the antibody on the solid surface. Conversely, if a large or a significant amount of carbamazepine is present in the fluid sample, less enzyme labeled carbamazepine derivative will bind to the antibody, producing less color signal. The absorbance produced is inversely proportional to the amount of carbamazepine in the fluid sample.
# Interference from other drugs was tested using 30 frequently used chemicals and medicines, at concentrations of 10.0 μg/ml.
# The samples were tested in duplicate, following the procedures used in Example 4. All 30 samples produced a negative test result. Thus, the immunoassay of the present disclosure is specific to carbamazepine.
row,Compound,Equivalent Carbamazepine Conc. [µg/mL]
1,CN[C@@H](C)[C@H](O)c1ccccc1 [(L)-Ephedrine],<0.1
2,CN1C(=O)CC[C@H]1c1cccnc1 [(−)-Cotinine],<0.1
3,CC(=O)Oc1ccccc1C(=O)O [Acetylsalicylic Acid],<0.1
4,CCC1(CCC(C)C)C(=O)NC(=O)NC1=O [Amobarbital],<0.1
5,CC1(C)S[C@@H]2[C@H](NC(=O)[C@H](N)c3ccccc3)C(=O)N2[C@H]1C(=O)O [Ampicillin],<0.1
6,Cn1c(=O)c2c(ncn2C)n(C)c1=O [Caffeine],<0.1
7,CN(C)CCCN1c2ccccc2Sc2ccc(Cl)cc21 [Chlorpromazine],<0.1
8,O=C(O)C1N=C(c2ccccc2)c2cc(Cl)ccc2NC1=O (centres unmarked) [Clorazepate],<0.1
9,CN1C(=O)CN=C(c2ccccc2)c2cc(Cl)ccc21 [Diazepam],<0.1
10,COC(=O)[C@@H]1[C@H]2CC[C@@H](C[C@@H]1O)N2C [Ecgonine Methyl Ester],<0.1
11,CC(C(=O)O)c1cccc(Oc2ccccc2)c1 (centres unmarked) [Fenoprofen],<0.1
12,Cc1ccc(C)c(OCCCC(C)(C)C(=O)O)c1 [Gemfibrozil],<0.1
13,O=C(O)c1cc(O)ccc1O [Gentisic Acid],<0.1
14,COc1ccc2c3c1O[C@H]1C(=O)CC[C@H]4[C@@H](C2)N(C)CC[C@]314 [Hydrocodone],<0.1
15,CC(C)Cc1ccc(C(C)C(=O)O)cc1 (centres unmarked) [Ibuprofen],<0.1
16,CN(C)CCCN1c2ccccc2CCc2ccccc21 [Imipramine],<0.1
17,CCN(CC)CC(=O)Nc1c(C)cccc1C [Lidocaine],<0.1
18,COc1ccc2cc([C@H](C)C(=O)O)ccc2c1 [Naproxen],<0.1
19,NC(=O)c1cccnc1 [Niacinamide],<0.1
20,CNC[C@H](O)c1cccc(O)c1 [Phenylephrine],<0.1
21,CC(N)C(O)c1ccccc1 (centres unmarked) [Phenylpropanolamine],<0.1
22,CCN(CC)CCNC(=O)c1ccc(N)cc1 [Procainamide],<0.1
23,CCN(CC)CCOC(=O)c1ccc(N)cc1 [Procaine],<0.1
24,C=C[C@H]1C[N@@]2CC[C@H]1C[C@@H]2[C@@H](O)c1ccnc2ccc(OC)cc12 [Quinidine],<0.1
25,Cc1cc(CC(=O)O)n(C)c1C(=O)c1ccc(Cl)cc1 [Zomepirac],<0.1
26,NCCc1ccccc1 [beta-Phenylethylamine],<0.1
27,CN[C@@H](C)Cc1ccccc1 [d-Methamphetamine],<0.1
28,Ecgonine,<0.1
29,Penicillin,<0.1
